The results in this text go back to paper PMC7905942 (ACS Omega, 2021).

Assay [1] concerns PC3 (prostate cancer) cells. As to the kind of experiment: SRB cytotoxicity assay, PC3. Type of assay: cell-based. Conditions: Homo sapiens, 48 h, read-out: Cytotoxicity IC50, PC3. For orientation: In SRB staining, fixed cells bind dye roughly in proportion to their protein.
Assay [2] deals with SW620 human colon cancer cells. Kind of assay: Annexin V-FITC/PI dual staining apoptosis assay. Format: cell-based. As to conditions: 10 μM, 24 h.
For assay [3], the system named is HDAC (Hela cell nuclear extract). Type of assay: biochemical. As to conditions: HDAC inhibitory activity and cytotoxicity together.
Assay [4] addresses T1, HDAC6 (Homo sapiens, UniProt Q9UBN7).
T1 sequence (Q9UBN7 1-1215): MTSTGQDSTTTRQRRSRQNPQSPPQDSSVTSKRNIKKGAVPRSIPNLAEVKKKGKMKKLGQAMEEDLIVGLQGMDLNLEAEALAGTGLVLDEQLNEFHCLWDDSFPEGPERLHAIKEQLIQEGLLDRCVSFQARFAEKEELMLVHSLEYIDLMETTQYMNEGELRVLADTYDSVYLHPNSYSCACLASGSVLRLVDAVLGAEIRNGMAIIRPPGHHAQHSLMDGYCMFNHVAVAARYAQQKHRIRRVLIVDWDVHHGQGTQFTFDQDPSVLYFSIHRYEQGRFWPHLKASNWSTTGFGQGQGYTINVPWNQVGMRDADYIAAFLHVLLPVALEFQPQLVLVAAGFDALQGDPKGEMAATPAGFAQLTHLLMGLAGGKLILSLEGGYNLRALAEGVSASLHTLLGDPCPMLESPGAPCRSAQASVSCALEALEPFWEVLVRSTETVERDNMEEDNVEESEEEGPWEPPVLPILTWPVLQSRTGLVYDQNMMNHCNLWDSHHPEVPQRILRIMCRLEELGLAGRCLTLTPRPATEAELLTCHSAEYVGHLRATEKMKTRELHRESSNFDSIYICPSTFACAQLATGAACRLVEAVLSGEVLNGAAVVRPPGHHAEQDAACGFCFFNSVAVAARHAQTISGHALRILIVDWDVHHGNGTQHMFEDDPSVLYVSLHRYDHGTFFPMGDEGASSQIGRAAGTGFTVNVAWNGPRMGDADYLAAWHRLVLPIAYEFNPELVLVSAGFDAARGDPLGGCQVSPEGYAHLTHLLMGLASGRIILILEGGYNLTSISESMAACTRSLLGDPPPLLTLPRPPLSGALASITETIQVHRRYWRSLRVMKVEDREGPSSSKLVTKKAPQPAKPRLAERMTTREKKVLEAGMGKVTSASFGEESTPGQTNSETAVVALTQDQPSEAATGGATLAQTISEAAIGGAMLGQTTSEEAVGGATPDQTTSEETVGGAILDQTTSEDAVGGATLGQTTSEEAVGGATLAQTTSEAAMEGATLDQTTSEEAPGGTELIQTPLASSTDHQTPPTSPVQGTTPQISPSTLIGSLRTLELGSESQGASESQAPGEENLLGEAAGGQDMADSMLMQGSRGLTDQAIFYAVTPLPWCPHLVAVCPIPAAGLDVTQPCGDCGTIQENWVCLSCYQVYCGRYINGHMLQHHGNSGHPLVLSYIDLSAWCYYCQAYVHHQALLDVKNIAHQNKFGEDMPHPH
Kind of assay: HDAC6 enzyme assay. Format: biochemical.

The subject of assay [5] is NCI-H23 (lung cancer) cells. As to the kind of experiment: SRB cytotoxicity assay, NCI-H23. Type of assay: cell-based. As to conditions: Homo sapiens, NCI-H23, 48 h, read-out: Cytotoxicity IC50, NCI-H23.
Assay [6] relates to SW620 human colon cancer cells. As to the kind of experiment: Cell cycle analysis by flow cytometry. Type of assay: cell-based. Conditions: compounds 10 μM, SAHA 1 μM, 24 h, vehicle 6.29%. In general terms: A flow cytometer gives signals particle by particle.
In assay [7] the test system is SW620, PC3 and NCI-H23 cancer cell lines. As to the kind of experiment: SRB cytotoxicity, range over three human cancer cell lines. Conditions: read-out: Cytotoxicity IC50 values (range over cell lines). Format: cell-based.
In assay [8] the test system is SW620 (colon cancer) cells. Kind of assay: SRB cytotoxicity assay, SW620. Format: cell-based. Conditions: Homo sapiens, SW-620, 48 h, read-out: Cytotoxicity IC50, SW620.

By IC50 is commonly meant the concentration that inhibits the measured activity by half. With `O=C(/C=C/c1ccc2c(=O)n(Cc3ccc(Cl)cc3)cnc2c1)NO` [Compound 10l, (E)-3-(3-(4-Chlorobenzyl)-4-oxo-3,4-dihydroquinazolin-7-yl)-N-hydroxyacrylamide], the IC50 was 767 ± 25 nM in assay [1], 33 nM in assay [4], 899 ± 45 nM in assay [5] and 671 to 1210 nM in assay [7]. The “induction of apoptosis (in words)” value in assay [2] is “substantially induced both early and late apoptosis”. Also, in assay [3], the “fold more potent than SAHA” value was 2- to 3 fold. Besides, in assay [6], the “cells in G2/M phase” value stood at 26.70%.

Turning to `Cc1ccc(Cn2cnc3cc(/C=C/C(=O)NO)ccc3c2=O)cc1` [Compound 10m, (E)-N-Hydroxy-3-(3-(4-methylbenzyl)-4-oxo-3,4-dihydroquinazolin-7-yl)acrylamide], the IC50 in assay [1] was 1210 ± 50 nM; in assay [8] it was 898 ± 47 nM; in assay [4], 47 ± 1 nM; in assay [5], 769 ± 9 nM; in assay [7], 671 to 1210 nM. The “induction of apoptosis (in words)” value in assay [2] is “substantially induced both early and late apoptosis”. For the same compound, in assay [3], the “fold more potent than SAHA” value was 2- to 3 fold. Further, in assay [6], the “cells in G2/M phase” value is 30.11%.
